Consider two compounds from US20240166690A1, “MULTI-TARGET CY[…] FOR OPIOID/NEUROPEPTIDE FF RECEPTORS, AND PREPARATION THEREFOR AND APPLICATION THEREOF” (SHANGHAI TIANCI LIFE SCIENCE DEVELOPMENT CO., LTD., priority 2021, published 2024).

Data set [1] has as its target T1, Kappa-opioid receptor (Homo sapiens, UniProt P41145).
T1 construct: expressed in transfected cells; host or cells: HEK293
Nature of the data set: cAMP functional experiment, Kappa-opioid receptor (forskolin-induced cAMP accumulation). In kind it is cell-based. As for the experimental part: (§1) The agonistic activity of the cyclopeptide molecule of the present invention against Mu-opioid receptor, Delta-opioid receptor, Kappa-opioid receptor, NPFF1 receptor and NPFF2 receptor was evaluated by detecting the regulation of the cyclopeptide molecule of the present invention on the intracellular accumulation of cyclic adenosine monophosphate (cAMP) induced by Forskolin in HEK293 cells stably expressing these five receptors. The experimental method was: the cells were seeded in 24 well plates with 120000 cells per well, and were cultured for more than 20 hours. At the beginning of the experiment, the culture medium in the culture dish was suck out, and then 500 μL of preheated serum-free medium containing 1 mM of IBMX was added, the mixture was incubated at 37° C. for 10 minutes. Then each 10 μL of the drug to be tested and 10 μM of forskolin (final concentration) were added to each well. The mixture was incubated at 37° C. for 30 minutes. After incubation, all the liquid was suck out from the culture dish, 500 μL of 0.2 N hydrochloric acid was added to each well, the mixture was incubated at room temperature for 30 minutes to promote cell lysis. After lysis was complete, NaOH was added to neutralize the hydrochloric acid solution used for lysis. Then all the liquid was suck out from the culture dish into centrifuge tubes, the liquid was centrifuged at 12000 rpm for 2 minutes. 50 μL was taken to a clean centrifuge tube, 100 μL of 60 μg/μL PKA was added, and 100 μL of TE cAMP buffer was added to the blank control group (B). Another 50 μL of 0.5 μ Ci[^3H]cAMP was added to each of the above centrifuge tubes, the mixture was quickly mixed and incubated at 4° C. for more than 2 hours. After incubation, another 100 μL of activated carbon suspension was added to each tube, the mixture was vortex agitated evenly, placed in an ice bath for 1 minute, centrifuged at 5000 rpm for 4 minutes. 200 μL of supernatant after centrifugation in each tube was suck out to a 24 well plate, with an additional 700 μL of scintillator liquid added per well, then the 24 well plate was sealed with adhesive film, placed for 3 hours, then placed on the scintillation instrument for measurement.
(§2) The inhibitory effect of cAMP was represented by the percentage (% control) of drug inhibition of intracellular cAMP accumulation induced by Forskolin, wherein % control=(cAMP content when treated with Forskolin−cAMP content when Forskolin co-treated with the test drug)/(cAMP content when treated with Forskolin−cAMP content when treated with solvent). The related % control data was represented by mean±S.E.M. The dose-effect relationship of the drug was statistically analyzed using a nonlinear regression model, and the IC50 values of the multi-target cyclopeptide molecule on inhibition of Forskolin induced intracellular cAMP accumulation were calculated using the statistical software GraphPad Prism version 5.0.
(Cyclic AMP is a second messenger, typically raised through Gs and lowered through Gi signalling.)

Data set [2] deals with T2, NPFF1 receptor (Homo sapiens, UniProt Q9GZQ6).
T2 construct: expressed in transfected cells; host or cells: HEK293
T2 sequence (Q9GZQ6 whole entry): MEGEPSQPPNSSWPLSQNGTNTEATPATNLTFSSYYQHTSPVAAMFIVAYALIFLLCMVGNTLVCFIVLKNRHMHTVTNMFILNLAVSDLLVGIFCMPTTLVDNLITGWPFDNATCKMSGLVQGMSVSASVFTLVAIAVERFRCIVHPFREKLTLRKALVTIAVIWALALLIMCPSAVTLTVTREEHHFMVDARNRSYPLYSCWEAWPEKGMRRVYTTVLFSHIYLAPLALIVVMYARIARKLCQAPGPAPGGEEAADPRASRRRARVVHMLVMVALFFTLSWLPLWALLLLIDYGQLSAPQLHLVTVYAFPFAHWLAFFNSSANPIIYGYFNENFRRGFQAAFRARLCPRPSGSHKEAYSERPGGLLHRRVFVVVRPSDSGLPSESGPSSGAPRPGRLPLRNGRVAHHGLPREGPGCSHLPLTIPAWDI
Nature of the data set: cAMP functional experiment, NPFF1 receptor (forskolin-induced cAMP accumulation). In kind it is cell-based. How it is done:
as §1, §2

In data set [3] the target is T3, NPFF2 receptor (Homo sapiens, UniProt Q9Y5X5).
T3 construct: expressed in transfected cells; host or cells: HEK293
T3 sequence (Q9Y5X5 whole entry): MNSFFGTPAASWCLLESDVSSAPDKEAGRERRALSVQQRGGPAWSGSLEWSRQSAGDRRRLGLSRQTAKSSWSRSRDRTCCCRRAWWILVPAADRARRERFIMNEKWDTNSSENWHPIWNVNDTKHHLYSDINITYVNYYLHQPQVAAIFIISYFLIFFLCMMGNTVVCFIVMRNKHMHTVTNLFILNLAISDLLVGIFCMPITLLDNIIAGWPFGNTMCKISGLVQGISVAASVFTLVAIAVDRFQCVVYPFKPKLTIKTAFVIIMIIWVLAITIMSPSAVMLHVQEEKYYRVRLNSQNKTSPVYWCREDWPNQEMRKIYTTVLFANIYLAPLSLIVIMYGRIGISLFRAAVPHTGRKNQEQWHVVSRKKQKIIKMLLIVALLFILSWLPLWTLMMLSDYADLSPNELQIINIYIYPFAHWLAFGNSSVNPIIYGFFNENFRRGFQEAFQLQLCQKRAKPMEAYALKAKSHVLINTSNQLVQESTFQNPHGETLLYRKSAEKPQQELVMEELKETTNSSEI
Nature of the data set: cAMP functional experiment, NPFF2 receptor (forskolin-induced cAMP accumulation). In kind it is cell-based. As for the experimental part: as §1, §2

For data set [4], the system named is Kunming male mice. Nature of the data set: Photothermal tail flick experiment, oral administration. In kind it is in vivo. As to conditions: for Maximum analgesic time: oral administration at the maximum analgesic dose; for Maximum analgesic time / analgesic duration: tail flick; for ED50 value (95% confidence interval), oral analgesic activity / analgesic duration: oral administration; for ED50 value (95% confidence interval), oral analgesic activity: photothermal tail flick. How it is done:
Two administration methods were used: peripheral subcutaneous administration and oral administration. Subsequently, the analgesic activity of the drug was studied using an acute pain model of photothermal tail flick in mice.
1 mL sterile syringe was used for oral administration (p.o.), the pinhead was replaced with a mouse gastric lavage needle, and […] of the drug was orally administered. The skin on the neck and back of the mouse was grasped with the left hand with the abdomen facing upwards. Noted that the mouse's entire body was fixed to vertical, which was beneficial for oral gavage. A gastric lavage needle (No. 12 needle and 1 mL syringe) was held in the right hand and was inserted to the esophagus along the upper jaw which is pressed the tongue tightly from the corner of the mouse's mouth. Gastric lavage fluid can be injected when the needle inserted 2.5 cm. The inserting length of the needle should be determined through practice in advance, as there is a sense of falling into a hole after the needle is inserted. If the injection position was appropriate, it should be very smooth. […] This can cause immediate death of the mouse after gavage.
The photothermal tail flick experiment is based on the experimental method summarized by D'Amour and Smith to optimize the experimental parameters. The experiment selected Kunming male mice with body weigh 21±2 g, and ambient temperature controlled at 22±2° C. The experimental mice were allowed to drink water freely and were moved from the breeding room to the experimental area for adaptation for 30 minutes before starting the experiment. Then the mice were grab with the right hand and the tail hang freely. Then the mice's tail were placed on a radiation light source, 2-3 mm away from the mice tail. The intensity of radiation heat was adjusted to the tail flick time of mice being 3-5 s, which is the basic pain threshold of photothermal tail flick. The irradiation time of the mice tail should not exceed 10 s to prevent scalding of the mice tail, which was the maximum latency for photothermal tail flick. After administration, time points of 10, 20, 30, 45, 60, 90, 120, 180, 240, 300, 360, and 420 minutes were selected to measure the tail flick latency of mice after administration.
The analgesic effect of drugs was generally evaluated using the maximum analgesic effect MPE (%), MPE (%)=100×[(pain threshold after administration−basic pain threshold)/(10 seconds−basic pain threshold)]. 50% effective dose (ED50) refers to the corresponding drug dose that causes a 50% effect. ED50 and 95% confidence interval were calculated using MPE (%) and the drug concentration that achieves the maximum analgesic effect MPE (%) by the statistical software GraphPad Prism 5.0. The difference in analgesic effects was statistically analyzed using one-way ANOVA (Dunnett test), *P<0.05, **P<0.01, and ***P<0.001 indicated significance of the difference between the group with only drug injected and the saline group.

Data set [5] has as its system mice. Nature of the data set: Naloxone withdrawal experiment (number of jumps). In kind it is in vivo. As to conditions: for number of jumps: escalating doses every 8 hours, naloxone 10 mg/kg i.p., 30 minutes, saline 5; for withdrawal symptoms versus saline: oral, low and high doses. How it is done: The naloxone withdrawal test is a classic experiment for evaluating drug physiological addiction. The experimental method is based on Venetia Zachariou (2003). […] High doses of compound 11 were also administered with doses of 20, 40, 60, 80, 100, 100, and 100 μg/kg, respectively. Two hours after the last administration, mice were intraperitoneally injected with 10 mg/kg of naloxone. Then the mouse was immediately placed in an opaque barrel-shaped structure with an inner diameter of 9 cm and a height of 32 cm, and the number of jumps in mice within 30 minutes was recorded. The experimental results were represented by the number of jumps in mice, which is the number of jumps±S.E.M. The difference between the compound group and saline control group was statistically analyzed using one-way ANOVA (Bonferroni test). *P<0.05, **P<0.01, and ***P<0.001 indicated significance of differences between saline and compound.

The structures appear in SMILES notation. Bridge positions count the residues as written; N and C are the ends. Square brackets hold non-standard residues; d marks the D form. Peptide text beside a SMILES is read from it. NMeF = CN[C@@H](Cc1ccccc1)C(=O)O; dOrn = NCCC[C@@H](N)C(=O)O

T1 sequence (P41145 whole entry): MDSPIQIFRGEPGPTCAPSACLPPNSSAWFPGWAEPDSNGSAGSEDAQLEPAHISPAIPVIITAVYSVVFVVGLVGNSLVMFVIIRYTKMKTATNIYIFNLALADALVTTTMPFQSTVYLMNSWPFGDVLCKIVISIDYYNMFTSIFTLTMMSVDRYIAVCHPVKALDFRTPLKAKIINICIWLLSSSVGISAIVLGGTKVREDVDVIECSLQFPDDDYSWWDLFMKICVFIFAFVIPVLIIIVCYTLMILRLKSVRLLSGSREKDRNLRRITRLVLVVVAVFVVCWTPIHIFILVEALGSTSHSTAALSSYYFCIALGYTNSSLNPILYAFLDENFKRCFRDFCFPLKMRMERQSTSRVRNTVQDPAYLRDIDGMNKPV

Turning to `CN1C(=O)CNC(=O)[C@H](NC(=O)[C@@H](N)Cc2ccc(O)cc2)CCCCNC(=O)C[C@@H](C(=O)N2CCC[C@H]2C(=O)N[C@@H](CCC(N)=O)C(=O)N[C@@H](CCCNC(=N)N)C(=O)N[C@@H](Cc2ccccc2)C(N)=O)NC(=O)[C@@H]1Cc1ccccc1` [Compound 1, Tyr-c[D-Lys-Gly-NMe-Phe-Asp]-Pro-Gln-Arg-Phe-NH2] (H-Y[dK]G[NMeF]DPQRF-NH2; lactam 2-5), the values for the half-maximal inhibitory concentration (IC50) in data set [1], in data set [2] and in data set [3] were 0.039 µM, 0.104 µM and 0.0498 µM, respectively. This compound had a Maximum analgesic time in data set [4] of 30 min. Moreover, in data set [4], the “ED50 value (95% confidence interval), oral analgesic activity” value stood at 1.37 µg/kg. The compound also yielded an analgesic duration in data set [4] of 240 min. For the same compound, the number of jumps in data set [5] (high-dose oral) and in data set [5] (low-dose oral) was 1 each time. Further, the “withdrawal symptoms versus saline” value in data set [5] is “did not show withdrawal symptoms”.

Regarding `CN1C(=O)CNC(=O)[C@H](NC(=O)[C@@H](N)Cc2ccc(O)cc2)CCCNC(=O)CC[C@@H](C(=O)N2CCC[C@H]2C(=O)N[C@@H](CCC(N)=O)C(=O)N[C@@H](CCCNC(=N)N)C(=O)N[C@@H](Cc2ccccc2)C(N)=O)NC(=O)[C@@H]1Cc1ccccc1` [Compound 11, Tyr-c^[2,5][D-Orn-Gly-NMe-Phe-Glu]-Pro-Gln-Arg-Phe-NH2] (H-Y[dOrn]G[NMeF]EPQRF-NH2; lactam 2-5), the half-maximal inhibitory concentration (IC50) stood at 0.109 µM in data set [1], 0.0429 µM in data set [2] and 0.572 µM in data set [3]. For the same compound, the Maximum analgesic time in data set [4] is given as 20 min. For the same compound, the “ED50 value (95% confidence interval), oral analgesic activity” value in data set [4] came to 0.14 µg/kg. Also, in data set [4], the analgesic duration is 240 min. In addition, the values for the number of jumps in data set [5] (high-dose oral) and in data set [5] (low-dose oral) were 4 and 9, respectively. Moreover, the “withdrawal symptoms versus saline” value in data set [5] is “did not show withdrawal symptoms”.

What is called IC50 is the concentration at which inhibition is half-maximal.
